Laboratory results published in PubChem BioAssay (NCI).
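Growth conditions: 96-well plates. Treatment: test compound, 48 hours, 5 concentrations. Analysis: linear interpolation between bracketing concentrations; unreached endpoints set to highest concentration. TGI marks complete inhibition of growth.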

Key:
Assay in all cases: NCI tumour cell line growth inhibition, 48 h
[1] = test system: 786-0 renal
[2] = test system: SNB-19 CNS
[3] = test system: CCRF-CEM leukemia
[4] = test system: RPMI-8226 leukemia
[5] = test system: UACC-62 melanoma
[6] = test system: SF-268 CNS
[7] = test system: HT29 colon
[8] = test system: SK-MEL-28 melanoma
[9] = test system: RXF 393 renal
[10] = test system: MDA-N
[11] = test system: LOX IMVI melanoma
[12] = test system: OVCAR-3 ovarian
[13] = test system: PC-3 prostate
[14] = test system: SN12C renal
[15] = test system: A549 NSCLC
[16] = test system: MOLT-4 leukemia
[17] = test system: OVCAR-5 ovarian
[18] = test system: CAKI-1 renal
[19] = test system: NCI-H226 lung
[20] = test system: MCF7 breast

SMILES	TGI [1] [µM]	TGI [2] [µM]	TGI [3] [µM]	TGI [4] [µM]	TGI [5] [µM]	TGI [6] [µM]	TGI [7] [µM]	TGI [8] [µM]	TGI [9] [µM]	TGI [10] [µM]	TGI [11] [µM]	TGI [12] [µM]	TGI [13] [µM]	TGI [14] [µM]	TGI [15] [µM]	TGI [16] [µM]	TGI [17] [µM]	TGI [18] [µM]	TGI [19] [µM]	TGI [20] [µM]
Cc1nc2ccccc2c(=O)n1NC(=O)c1ccccn1	> 100	> 100	> 100	> 100	> 100	> 100	> 100	> 100	> 100	> 100	> 100	> 100	> 100	> 100	> 100	> 100	–	–	–	–
Cc1c2c(cc3c1C(=O)C(=O)C([C@@H](C)CO)=C3O)C(C)(C)CCC2	> 100	23.3	40.7	> 100	> 100	> 100	30.6	> 100	92.3	> 100	> 100	> 100	48.2	> 100	> 100	93.2	> 100	> 100	> 100	–
C1C2CC3CC1CC(c1nn4c(C56CC7CC(CC(C7)C5)C6)nnc4s1)(C2)C3	> 100	> 100	> 100	> 100	> 100	> 100	> 100	> 100	> 100	> 100	> 100	> 100	> 100	> 100	> 100	> 100	> 100	> 100	> 100	–
Cc1nc(N)c(N2CCN(S(N)(=O)=O)CC2)c(=O)[nH]1	> 100	> 100	> 100	> 100	–	> 100	> 100	> 100	–	–	> 100	> 100	> 100	> 100	> 100	> 100	> 100	–	> 100	> 100
Cc1cccc(N/C(=C(/C(Cl)=C(Cl)Cl)[N+](=O)[O-])n2nnc3ccccc32)c1	35.7	34.3	> 100	> 100	37	31.1	33.3	28.1	–	64.9	–	35.5	30.1	32.9	36	> 100	38	31.4	26.6	50
O=C(O)c1cccc(Nc2c(C(=O)O)cccc2[N+](=O)[O-])c1	> 100	> 100	> 100	> 100	> 100	–	> 100	–	–	> 100	> 100	> 100	> 100	> 100	> 100	> 100	> 100	> 100	–	> 100
CC(=O)OC1=NN=C2COC(c3ccccc3OC(C)=O)=NN2C1	> 50	> 50	> 50	> 50	> 50	> 50	> 50	> 50	> 50	> 50	> 50	> 50	> 50	> 50	> 50	–	> 50	> 50	–	> 50
CC12CCCC(C(=O)O)(C1)[C@H](C(C)(C)C(=O)O)CC2 (stereo partly drawn)	> 100	> 100	> 100	> 100	> 100	> 100	> 100	> 100	–	> 100	> 100	> 100	> 100	> 100	> 100	> 100	> 100	> 100	> 100	> 100
CCOc1cccc(C=Nc2ccccc2SSc2ccccc2N=Cc2cccc(OCC)c2O)c1O	19.8	47.4	12.2	35.9	22	21.5	28.9	26.2	34.9	37.7	14.9	8.16	12.8	35.7	26.6	10.4	14.6	29.3	22.5	–
OCC1OC(NC(=S)NCCC(F)(F)C(F)(F)C(F)(F)C(F)(F)C(F)(F)C(F)(F)F)C(O)C(O)C1O (stereo not drawn)	> 100	> 100	> 100	> 100	> 100	> 100	> 100	> 100	> 100	> 100	> 100	> 100	> 100	> 100	> 100	> 100	> 100	> 100	–	> 100
COc1ccc(N2C(=O)C3c4[nH]c5ccc(C)cc5c4C4CCC(C(C)(C)C)CC4C3C2=O)cc1 (stereo not drawn)	48.7	62.6	16.7	82.1	29.7	64.5	> 100	33.3	38.8	–	–	32	> 100	> 100	> 100	34.9	–	23.7	48.9	> 100
Cc1ccc(S(=O)(=O)NC(=O)NCc2ccc(S(N)(=O)=O)cc2)cc1	> 100	> 100	–	> 100	> 100	> 100	> 100	> 100	> 100	–	> 100	> 100	> 100	–	> 100	> 100	> 100	> 100	> 100	> 100
